{"source": "patent US6448282B1", "about": "“1H-4(5)-substituted imidazole derivatives” (Gliatech, Inc., priority 1995, dated 2002)", "data": [{"molecular_target": "T1, Histamine H3 receptor (Rattus norvegicus, UniProt Q9QYN8)", "T1 construct": "from tissue; host or cells: rat cerebral cortex membranes", "T1 sequence (Q9QYN8 whole entry)": "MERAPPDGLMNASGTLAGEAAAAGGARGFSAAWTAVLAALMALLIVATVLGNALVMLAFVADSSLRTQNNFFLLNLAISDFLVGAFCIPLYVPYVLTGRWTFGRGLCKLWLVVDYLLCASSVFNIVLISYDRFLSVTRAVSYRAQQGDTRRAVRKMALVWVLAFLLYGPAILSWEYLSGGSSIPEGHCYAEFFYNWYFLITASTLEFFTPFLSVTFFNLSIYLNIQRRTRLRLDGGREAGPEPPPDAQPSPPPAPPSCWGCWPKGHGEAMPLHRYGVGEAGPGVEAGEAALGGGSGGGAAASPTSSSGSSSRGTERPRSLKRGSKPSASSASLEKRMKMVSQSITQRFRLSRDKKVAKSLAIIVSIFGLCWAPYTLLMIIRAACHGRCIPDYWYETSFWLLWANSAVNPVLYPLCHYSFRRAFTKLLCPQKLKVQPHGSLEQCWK", "assay": "In vitro histamine H3 receptor binding analysis, [3H]-Nα-methylhistamine, rat cortical membranes", "conditions": "Ki=IC50/(1+([Ligand]/[Kd])", "protocol": "Briefly, animals were sacrificed by decapitation and the cerebral cortex was rapidly removed. Rat cortices were mechanically homogenized with an Omni 1000 motor driven homogenizer in 10 volumes (wt/vol) of Krebs-Ringers Hepes buffer (pH 7.4) containing the following protease inhibitors; EDTA (10 mM), PMSF (0.1 mM), chymostatin (0.2 mg/50 ml) and leupeptin (0.2 mg/50 ml). The homogenate was centrifuged in a Sorvall at ˜40,000×g for 30 min. The pellet was resuspended by mechanical homogenization in 25 ml water and lysed on ice for 30 min. The homogenate was recentrifuged and the membrane lysis was repeated. The membranes were recentrifuged and the final pellet was resuspended in 14 volumes of water to give approximately 200 μg protein/100 μl final concentration. The suspension was stored at −80° C. prior to use. Protein concentrations were determined by Coomassie Plus Protein Assay (Pierce, Rockford, Ill.).\nNonspecific binding (NSB) was accounted for by the inclusion of thioperamide (10 μM). The samples were incubated for 40 min at 25° C. Samples were filtered through glass fiber strips, pre-washed with 0.3% polyethyleneimine, using a Brandell cell harvester. […] Filters were transferred to polyethylene minivials and counted in 3.5 ml of scintillation fluid (Ecolume, ICN Biomedicals, Inc.). […] Saturation and competition experiments were analyzed with the ReceptorFit saturation and competition curve fitting programs (Lundon Software, Inc., Cleveland, Ohio).", "units": {"Ki": "nM"}, "values": [{"smiles": "N[C@@H](Cc1cccc2ccccc12)C(=O)NCCc1c[nH]cn1", "note": "[Example 8, 2-(S)-Amino-N-(2-imidazol-4-ylethyl)-3-naphthylpropanamide]", "Ki": "299 ± 82"}, {"smiles": "C(#CCCC1CCCCC1)CCc1c[nH]cn1", "note": "[Example 23, 4-(6-Cyclohexylhex-3-ynyl)imidazole]", "Ki": "2.9 ± 0.2"}, {"smiles": "BrC(Br)=CCCc1c[nH]cn1", "note": "[Example 47, 4-(4,4-Dibromobut-3-enyl)imidazole]", "Ki": "26 ± 9.6"}, {"smiles": "N[C@@H](CCc1ccccc1)C(=O)NCCc1c[nH]cn1", "note": "[Example 11, 2-(S)-Amino-N-(2-imidazol-4-ylethyl)-4-phenylbutanamide]", "Ki": "10.9 ± 1.7"}, {"smiles": "CCCCC#CCCc1c[nH]cn1", "note": "[Example 40, 4-Oct-3-ynylimidazole]", "Ki": "3 ± 0.2"}, {"smiles": "CCC#CCCc1c[nH]cn1", "note": "[Example 27, 4-Hex-3-ynylimidazole]", "Ki": "79 ± 22"}, {"smiles": "N[C@@H](CC1CCCCC1)C(=O)NCCc1cnc[nH]1", "note": "[Example 6, 2-(S)-Amino-3-cyclohexyl-N-(2-imidazol-4-ylethyl)propanamide]", "Ki": "30.8 ± 2.1"}, {"smiles": "C(#Cc1c[nH]cn1)CCCc1ccccc1", "note": "[Example 38, 4-(5-Phenylpent-1-ynyl)imidazole]", "Ki": "591 ± 36"}, {"smiles": "O=C(NCCc1c[nH]cn1)[C@@H]1Cc2ccccc2CN1", "note": "[Example 3]", "Ki": "82.7 ± 7.7"}, {"smiles": "CCCC#CCCc1c[nH]cn1", "note": "[Example 28, 4-Heptyl-3-ynylimidazole]", "Ki": "27 ± 7.5"}, {"smiles": "C[C@H](Cc1c[nH]cn1)NC(=O)[C@@H]1CC2CCCCC2N1", "note": "(stereo partly drawn) [Example 21]", "Ki": "231 ± 15"}, {"smiles": "C(=C\\CCC1CCCCC1)/CCc1c[nH]cn1", "note": "[Example 25, 4-(6-Cyclohexylhex-trans-3-enyl)imidazole]", "Ki": "16 ± 2"}, {"smiles": "C(=C/CCc1c[nH]cn1)/CCc1ccccc1", "note": "[Example 42, 4-(6-Phenylhex-cis-3-enyl)imidazole]", "Ki": "5.5 ± 0.02"}, {"smiles": "c1ncc(CCCCCCC2CCCCC2)[nH]1", "note": "[Example 41, 4-(6-Cyclohexylhexyl)imidazole]", "Ki": 74.5}, {"smiles": "CN(CCc1c[nH]cn1)C(=O)[C@@H]1CC2CCCCC2N1", "note": "(stereo partly drawn) [Example 18, (7-Azabicyclo[4.3.0]non-(S)-8-yl)-N-(2-imidazol-4-ylethyl)-N-methylformamide]", "Ki": "45 ± 11"}, {"smiles": "CC(C)C[C@H](N)C(=O)NCCc1c[nH]cn1", "note": "[Example 20, 2-(S)-Amino-N-(2-imidazol-4-ylethyl)-4-methylpentanamide]", "Ki": "122 ± 37"}, {"smiles": "N[C@@H](Cc1c[nH]cn1)C(=O)NCCc1c[nH]cn1", "note": "[Example 16, 2-(S)-Amino-3-imidazol-4-yl-N-(2-imidazol-4-ylethyl)propanamide]", "Ki": "3260 ± 457"}, {"smiles": "CCCCCCCC#CCCc1c[nH]cn1", "note": "[Example 34, 4-Undec-3-ynylimidazole]", "Ki": "2.8 ± 0.7"}, {"smiles": "N[C@@H](Cc1ccccc1)C(=O)NCCc1c[nH]cn1", "note": "[Example 1, 2-(S)-Amino-N-(2-imidazol-4-yletyl)-3-phenyl propanamide]", "Ki": "104 ± 14"}, {"smiles": "c1nc(CCNC[C@@H]2CC3CCCCC3N2)c[nH]1", "note": "(stereo partly drawn) [Example 22, ((7-Azabicyclo[4.3.0]non-(S)-8-yl)methyl)(2-imidazol-4-ylethyl)amine]", "Ki": "66 ± 4"}, {"smiles": "Cc1c(C)c(S(=O)(=O)NC(=N)NCCC[C@H](N)C(=O)NCCc2c[nH]cn2)c(C)c2c1OC(C)(C)CC2", "note": "[Example 17, 2-(S)-Amino-N-(2-imidazol-4ylethyl)-5-((imino(((2,2,5,7,8-pentamethylchroman-6-yl)sulfonyl)amino)methyl)amino)pentanamide]", "Ki": "14 ± 3"}, {"smiles": "CN[C@@H](Cc1ccccc1)C(=O)NCCc1c[nH]cn1", "note": "[Example 7]", "Ki": "1650 ± 310"}, {"smiles": "N[C@H](Cc1ccccc1)C(=O)NCCc1c[nH]cn1", "note": "[Example 4, 2-(R)-Amino-N-(2-imidazol-4-yletyl)-3-phenyl propanamide]", "Ki": "> 10000"}, {"smiles": "N[C@@H](Cc1ccc(OCc2ccccc2)cc1)C(=O)NCCc1c[nH]cn1", "note": "[Example 13, 2-(S)-Amino-N-(2-imidazol-4-ylethyl)-3-(4-(phenylmethoxy)phenyl) propanamide]", "Ki": "199 ± 24"}, {"smiles": "N[C@@H](Cc1ccc(F)cc1)C(=O)NCCc1c[nH]cn1", "note": "[Example 5, 2-(S)-Amino-3-(4-flurophenyl)-N-(2-imidazoyl-4-ylethyl)propanamide]", "Ki": "84.5 ± 12.8"}, {"smiles": "CC(C)CCC#CCCc1c[nH]cn1", "note": "[Example 29, 4-(7-Methyloct-3-ynyl)imidazole]", "Ki": "3.7 ± 1.1"}, {"smiles": "C(=C/CCC1CCCCC1)/CCc1c[nH]cn1", "note": "[Example 24, 4-(6-Cyclohexyl-cis-3-enyl)imidazole]", "Ki": "4.2 ± 0.6"}, {"smiles": "C(#CCCC1CCCC1)CCc1c[nH]cn1", "note": "[Example 30, 4-(6-Cyclopentylhex-3-ynyl)imidazole]", "Ki": "0.95 ± 0.3"}, {"smiles": "N=C(N)NCCC[C@H](N)C(=O)NCCc1c[nH]cn1", "note": "[Example 19, 5-(Amidinoamino)-2-(S)-amino-N-(2-imidazol-4-ylethyl)pentanamide]", "Ki": "63 ± 1"}, {"smiles": "N[C@H](C(=O)NCCc1c[nH]cn1)c1ccccc1", "note": "[Example 9, 2-(S)-Amino-N-(2-imidazol-4-ylethyl)-2-phenylethanamide]", "Ki": "630 ± 51"}, {"smiles": "N[C@@H](CC(=O)OCc1ccccc1)C(=O)NCCc1c[nH]cn1", "note": "[Example 15, Phenylmethyl-3-(S)-amino-3-(N-(2-imidazol-4-ylethyl)carbamoyl)propanoate]", "Ki": "81.6 ± 13.6"}, {"smiles": "C(#CCCc1c[nH]cn1)CCCC1CCCCC1", "note": "[Example 37, 4-(7-Cyclohexylhept-3-ynyl)imidazole]", "Ki": "3.4 ± 1.7"}, {"smiles": "BrC(Br)=Cc1c[nH]cn1", "note": "[Example 48, 4-(2,2-Dibromovinyl)imidazole]", "Ki": "> 10000"}, {"smiles": "CC(C)(C)CCC#CCCc1c[nH]cn1", "note": "[Example 32, 4-(7,7-Dimethyloct-3-ynyl)imidazole]", "Ki": "0.8 ± 0.4"}, {"smiles": "CCCCCC#CCCc1c[nH]cn1", "note": "[Example 33, 4-Non-3-ynylimidazole]", "Ki": "5.6 ± 1"}, {"smiles": "N[C@@H](COCc1ccccc1)C(=O)NCCc1c[nH]cn1", "note": "[Example 14, 2-(S)-Amino-N-(2-imidazol-4-ylethyl)-3-(phenylmethoxy)propanamide]", "Ki": "122 ± 11"}, {"smiles": "C(#Cc1c[nH]cn1)CCCC1CCCCC1", "note": "[Example 36, 4-(5-Cyclohexylpent-1-ynyl)imidazole]", "Ki": "863 ± 139"}, {"smiles": "C(#CCCN1CCOCC1)CCc1c[nH]cn1", "note": "[Example 35, 4-(6-Imidazol-4-ylhex-3-ynyl)morpholine]", "Ki": "1210 ± 80"}, {"smiles": "C#Cc1c[nH]cn1", "note": "[Example 46, 4-Ethynylimidazole]", "Ki": "> 10000"}, {"smiles": "CC(=O)N[C@@H](CC1CCCCC1)C(=O)NCCc1c[nH]cn1", "note": "[Example 10, 2-(S)-(Acetylamino)-3-cycohexyl-N-(2-imidazol-4-ylethyl)propanamide]", "Ki": "5490 ± 255"}, {"smiles": "O=C(NCCc1c[nH]cn1)[C@@H]1CC2CCCCC2N1", "note": "(stereo partly drawn) [Example 12, (7-Azabicyclo[4.3.0]non-(S)-8-yl)-N-(2-imidazol-4-ylethyl)formamide]", "Ki": "11.1 ± 0.4"}, {"smiles": "O=C(NCCc1c[nH]cn1)[C@@H]1CCCN1", "note": "[Example 2, N-(2-Imidazol-4-ylethyl)-(S)-pyrrolidin-2-ylformamide]", "Ki": "202 ± 2"}, {"smiles": "C(#CCCc1c[nH]cn1)CCCc1ccccc1", "note": "[Example 39, 4-(7-Phenylhept-3-ynyl)imidazole]", "Ki": "6.7 ± 0.6"}, {"smiles": "N[C@H](/C=C/CCc1c[nH]cn1)CC1CCCCC1", "note": "[Example 26, 1-Cyclohexyl-6-imidazol-4-ylhex-trans-3-en-2-(S)-ylamine]", "Ki": "1 ± 0.1"}, {"smiles": "C#CCCc1c[nH]cn1", "note": "[Example 45, 4-But-3-ynylimidazole]", "Ki": "66 ± 5.5"}]}, {"test_system": "cat", "assay": "not given", "conditions": "cited from earlier work", "values": [{"smiles": "S=C(NC1CCCCC1)N1CCC(c2cnc[nH]2)CC1", "note": "[thioperamide]", "wakefulness": "enhanced wakefulness in a dose-dependent fashion"}]}, {"test_system": "cat", "assay": "not given", "conditions": "oral administration; cited from earlier work", "values": [{"smiles": "C[C@@H](N)Cc1cnc[nH]1", "note": "[RAMHA]", "deep slow wave sleep": "significant increase"}]}, {"test_system": "rats", "assay": "not given", "conditions": "cited from earlier work", "values": [{"smiles": "S=C(NC1CCCCC1)N1CCC(c2cnc[nH]2)CC1", "note": "[thioperamide]", "wakefulness, slow wave and REM sleep": "increase wakefulness and decrease slow wave and REM sleep"}]}, {"test_system": "electrically-induced convulsions", "assay": "not given", "conditions": "after electrically-induced convulsions; cited from earlier work", "values": [{"smiles": "S=C(NC1CCCCC1)N1CCC(c2cnc[nH]2)CC1", "note": "[thioperamide]", "durations of every convulsive phase": "significantly and dose-dependently decrease"}]}, {"test_system": "electrically-induced convulsions", "assay": "not given", "conditions": "in vivo; cited from earlier work", "values": [{"smiles": "S=C(NC1CCCCC1)N1CCC(c2cnc[nH]2)CC1", "note": "[thioperamide]", "electroconvulsive threshold": "increase the electroconvulsive threshold"}]}, {"test_system": "histamine synthesis and release", "assay": "not given", "conditions": "in vivo studies; cited from earlier work", "values": [{"smiles": "S=C(NC1CCCCC1)N1CCC(c2cnc[nH]2)CC1", "note": "[thioperamide]", "synthesis and release of histamine": "increase in synthesis and release of histamine"}]}]}
